# Data taken from patent publication US7745476B2, “1,3,5-trisubstituted 4,5-dihydro-1H-pyrazole derivatives having CB1-antagonistic activity” (Solvay Pharmaceuticals B.V., priority 2004, dated 2010).
# How the values were obtained:
# [1] = biological target: human cannabinoid CB1 receptor (Homo sapiens, UniProt P21554); test: In vitro affinity for cannabinoid-CB1 receptors ([3H]CP-55,940 radioligand binding, CHO cell membranes); conditions: read-out: In vitro affinity pKi value (converted)
# Protocol: The affinity of the compounds of the invention for cannabinoid CB1 receptors can be determined using membrane preparations of Chinese hamster ovary (CHO) cells in which the human cannabinoid CB1 receptor is stably transfected in conjunction with [^3H]CP-55,940 as radioligand. After incubation of a freshly prepared cell membrane preparation with the [^3H]-ligand, with or without addition of compounds of the invention, separation of bound and free ligand is performed by filtration over glassfiber filters. Radioactivity on the filter is measured by liquid scintillation counting.
# human CB1 receptor = human CB1 receptor (Homo sapiens, UniProt P21554); test: In vitro cannabinoid-CB1 receptor antagonism (WIN 55,212-2-induced [3H]-arachidonic acid release in CHO cells); format: cell-based; conditions: 10^−6M
# Sequence of human CB1 receptor (P21554 whole entry): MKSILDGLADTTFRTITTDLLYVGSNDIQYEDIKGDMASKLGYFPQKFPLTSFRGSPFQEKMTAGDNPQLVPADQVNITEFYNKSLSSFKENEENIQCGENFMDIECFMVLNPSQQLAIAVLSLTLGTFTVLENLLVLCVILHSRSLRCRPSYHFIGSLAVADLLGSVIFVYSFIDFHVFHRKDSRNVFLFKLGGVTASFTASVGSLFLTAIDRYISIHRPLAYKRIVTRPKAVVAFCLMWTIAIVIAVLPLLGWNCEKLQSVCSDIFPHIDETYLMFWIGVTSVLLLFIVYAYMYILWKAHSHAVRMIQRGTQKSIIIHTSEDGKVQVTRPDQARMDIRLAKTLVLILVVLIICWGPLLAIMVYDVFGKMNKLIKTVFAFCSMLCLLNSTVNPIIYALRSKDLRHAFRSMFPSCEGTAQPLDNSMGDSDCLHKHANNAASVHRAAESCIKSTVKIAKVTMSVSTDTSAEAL
# Protocol: In vitro CB1 receptor antagonism can be assessed with the human CB1 receptor cloned in Chinese hamster ovary (CHO) cells. CHO cells are grown in a Dulbecco's Modified Eagle's medium (DMEM) culture medium, supplemented with 10% heat-inactivated fetal calf serum. Medium is aspirated and replaced by DMEM, without fetal calf serum, but containing [^3H]-arachidonic acid and incubated overnight in a cell culture stove (5% CO2/95% air; 37° C.; water-saturated atmosphere). During this period [^3H]-arachidonic acid is incorporated in membrane phospholipids. On the test day, medium is aspirated and cells are washed three times using 0.5 ml DMEM, containing 0.2% bovine serum albumin (BSA). Stimulation of the CB1 receptor by WIN 55,212-2 leads to activation of PLA2 followed by release of [^3H]-arachidonic acid into the medium. This WIN 55,212-2-induced release is concentration-dependently antagonized by CB1 receptor antagonists.
# Sequence of human cannabinoid CB1 receptor (P21554 whole entry): as above
Structure (SMILES),melting point [°C],Ki [1] [nM],inhibition at 1 µM (human CB1 receptor) [%]
"N/C(=N\S(=O)(=O)c1ccc(F)cc1)C1=NN(c2ccc(Cl)cc2)C(c2ccccc2)C1 (stereo not shown) [Compound 5, N-[(4-fluorophenyl)sulfonyl]-1-(4-chlorophenyl)-5-phenyl-4,5-dihydro-(1H)-pyrazole-3-carboxamidine]",200 to 203.5,,
"CNC(=NS(=O)(=O)N1CCCCC1)C1=NN(c2ccc(Cl)cc2)C(c2ccccc2)C1 (stereo not shown) [Compound 10, N-[(piperidin-1-yl)sulfonyl]-N′-methyl-1-(4-chlorophenyl)-5-phenyl-4,5-dihydro-(1H)-pyrazole-3-carboxamidine]",,79.4,79
"CN/C(=N\S(=O)(=O)N1CCOCC1)C1=NN(c2ccc(Cl)cc2Cl)C(c2ccccc2)C1 (stereo not shown) [Compound 11, N-[(Morpholin-4-yl)sulfonyl]-N′-methyl-1-(2,4-dichlorophenyl)-5-phenyl-4,5-dihydro-(1H)-pyrazole-3-carboxamidine]",161 to 165,,
"O=C(NN1CCCCC1)C1=NN(c2ccc(Cl)cc2Cl)C(c2ccccc2)C1 (stereo not shown) [Compound 3, N-(Piperidin-1-yl)-1-(2,4-dichlorophenyl)-5-phenyl-4,5-dihydro-(1H)-pyrazole-3-carboxamide]",163 to 165,25.1,98
"O=C(NN1CCCCC1)C1=NN(c2ccc(Cl)cc2)C(c2ccccc2)C1 (stereo not shown) [Compound 1, N-(piperidin-1-yl)-1-(4-chlorophenyl)-5-phenyl-4,5-dihydro-(1H)-pyrazole-3-carboxamide]",189 to 192,,
"N/C(=N\S(=O)(=O)c1ccc(F)cc1)C1=NN(c2ccc(Cl)cc2Cl)C(c2ccccc2)C1 (stereo not shown) [Compound 6, N-[(4-fluorophenyl)sulfonyl]-1-(2,4-dichlorophenyl)-5-phenyl-4,5-dihydro-(1H)-pyrazole-3-carboxamidine]",167 to 169.5,,
O=C(NC1CCCCC1)C1=NN(c2ccc(Cl)cc2Cl)C(c2ccccc2)C1 (stereo not shown),160 to 163.5,,
